Where “and” joins values, the source holds several entries; their conditions need not be identical. Equal values may be shown once.
Test: RSV-A Assay: The description is Japanese.
For `Cc1nsc(N2CCOCC2)c1-c1nnc(N[C@H]2N=C(c3ccccc3)c3ccccc3NC2=O)o1`, the EC50 was “in the range around 600 nM”. With `O=C1Nc2ccccc2C(c2ccccc2)=N[C@@H]1Nc1nnc(-c2nc3ccccc3nc2N2CCOCC2)o1` the EC50 was less than 400 nM. `Cc1cc(-c2nnc(N[C@H]3N=C(c4ccccc4)c4ccccc4NC3=O)o2)n(C2CCOCC2)n1` showed an EC50 greater than 800 nM. With `N#Cc1ccn2ncc(-c3nnc(N[C@H]4N=C(c5ccccc5)c5ccccc5NC4=O)o3)c2c1` the EC50 was greater than 800 nM. `CCOC(=O)c1nc(C2(O)CCC2)sc1N1CCOCC1` showed an EC50 of less than 400 nM. `O=C1Nc2ccccc2C(c2ccccc2)=NC1Nc1nnc(-c2cn(-c3ccc(F)cn3)nc2N2CCOCC2)o1` (stereo not drawn) gave an EC50 of less than 400 nM. With `CCOC(=O)c1csc(C(F)(F)C(F)(F)F)n1` the EC50 was less than 400 nM. Work on `O=C1Nc2ccccc2C(c2ccccc2)=N[C@@H]1Nc1nnc(-c2nc(-c3ccccc3F)sc2N2CCOCC2)o1` yielded an EC50 of less than 400 nM. `COCCNc1sccc1-c1nnc(N[C@H]2N=C(c3ccccc3)c3ccccc3NC2=O)o1` gave an EC50 greater than 800 nM. `CO[C@@H]1COC[C@H]1Nc1cc(C(F)(F)F)cnc1-c1nnc(N[C@H]2N=C(c3ccccc3)c3ccccc3NC2=O)o1` gave an EC50 of less than 400 nM. With `O=C1Nc2ccccc2C(c2ccccc2)=N[C@@H]1Nc1nnc(-c2ncc(C(F)(F)F)cc2N[C@@H]2CCOC2)o1` the EC50 was less than 400 nM. Work on `O=C1Nc2ccccc2C(c2ccccc2)=NC1Nc1cc(N2CCOCC2)cnn1` (stereo not drawn) yielded an EC50 greater than 800 nM. `COCCCc1sc(C)nc1-c1nnc(N[C@H]2N=C(c3ccccc3)c3ccccc3NC2=O)o1` gave an EC50 greater than 800 nM. For `O=C1Nc2ccccc2C(c2ccccc2)=N[C@@H]1Nc1nnc(-c2ncc(C(F)(F)F)cc2N[C@H]2CCOC2)o1`, the EC50 was greater than 800 nM. `N#Cc1ccc2nccc(-c3nnc(N[C@H]4N=C(c5ccccc5)c5ccccc5NC4=O)o3)c2c1` showed an EC50 greater than 800 nM. With `CC(C)(c1nc(-c2nnc(N[C@H]3N=C(c4ccccc4)c4ccccc4NC3=O)o2)c(N2CCOCC2)s1)N1CCOCC1` the EC50 was less than 400 nM. Work on `COC[C@H]1C[C@@H]1c1cc(C(F)(F)F)cnc1-c1nnc(N[C@@H]2N=C(c3ccccc3)c3ccccc3NC2=O)o1` yielded an EC50 greater than 800 nM. For `O=C1Nc2ccccc2C(c2ccccc2)=N[C@@H]1Nc1nnc(-c2nc(-c3ccncc3)sc2N2CCOCC2)o1`, the EC50 was less than 400 nM. Work on `O=C1Nc2ccccc2C(c2ccccc2)=N[C@@H]1Nc1nnc(-c2nc(C(F)(F)F)sc2N[C@@H]2CCOC2)o1` yielded an EC50 of less than 400 nM. Compound `CCOC(=O)c1cnn2ccc(C)cc12` has an EC50 greater than 800 nM. With `COC[C@H]1C[C@@H]1c1cc(C(F)(F)F)cnc1-c1nnc(N[C@H]2N=C(c3ccccc3)c3ccccc3NC2=O)o1` the EC50 was greater than 800 nM. `O=C1Nc2ccccc2C(c2ccccc2)=N[C@@H]1Nc1nnc(-c2ncc(C(F)(F)F)cc2N2CCOC(C(F)(F)F)C2)o1` (stereo partly drawn) gave an EC50 of less than 400 nM. For `O=C1Nc2ccccc2C(c2ccccc2)=N[C@@H]1Nc1nnc(-c2cn(-c3ccc(C(F)(F)F)cn3)nc2N2CCOCC2)o1`, the EC50 was “in the range around 600 nM”. In the case of `O=C1Nc2ccccc2C(c2ccccc2)=N[C@@H]1Nc1nnc(-c2cn(-c3ccccn3)nc2N2CCOCC2)o1`, the EC50 is reported as less than 400 nM. With `O=C1Nc2ccccc2C(c2ccccc2)=N[C@@H]1Nc1nnc(-c2oc3cc(F)ccc3c2N2CCOCC2)o1` the EC50 was “in the range around 600 nM”. Work on `CCOC(=O)c1nc(C(F)(F)F)sc1C1=CCOCC1` yielded an EC50 of less than 400 nM. In the case of `O=C1OCCc2cc(C(F)(F)F)cnc21`, the EC50 is reported as greater than 800 nM. For `COC[C@@H]1C[C@H]1c1cc(C(F)(F)F)cnc1-c1nnc(N[C@H]2N=C(c3ccccc3)c3ccccc3NC2=O)o1`, the EC50 was greater than 800 nM. For `COC[C@@H](C)Nc1sc(C(F)(F)F)nc1-c1nnc(N[C@H]2N=C(c3ccccc3)c3ccccc3NC2=O)o1`, the EC50 was “in the range around 600 nM”. With `CCOC(=O)c1ncc(C(F)F)cc1N1CCOCC1` the EC50 was less than 400 nM. Work on `O=C1Nc2ccccc2C(c2ccccc2)=N[C@H]1Nc1nnc(-c2nc(C(F)(F)F)sc2N2CCO[C@H]3C[C@H]32)o1` yielded an EC50 greater than 800 nM. Work on `COC[C@@H]1CCCN1c1sc(C(F)(F)F)nc1-c1nnc(N[C@H]2N=C(c3ccccc3)c3ccccc3NC2=O)o1` yielded an EC50 greater than 800 nM. Work on `O=C1Nc2ccccc2C(c2ccccc2)=N[C@@H]1Nc1nnc(-c2nc(-c3ccc(F)cc3)sc2N2CCOCC2)o1` yielded an EC50 of less than 400 nM. `O=C1Nc2ccccc2C(c2ccccc2)=N[C@@H]1Nc1nnc(-c2ncc(C(F)(F)F)cc2N2CCOC3CC32)o1` (stereo partly drawn) gave an EC50 of less than 400 nM. `O=C1Nc2ccccc2C(c2ccccc2)=N[C@H]1Nc1nnc(-c2nc(C(F)(F)F)sc2N2CCO[C@@H]3C[C@@H]32)o1` showed an EC50 greater than 800 nM. For `O=C1Nc2ccccc2C(c2ccccc2)=N[C@@H]1Nc1nnc(-c2nc(C3(C(F)(F)F)CCC3)sc2N2CCOCC2)o1`, the EC50 was less than 400 nM. For `O=C1Nc2ccccc2C(c2ccccc2)=N[C@@H]1Nc1nnc(-c2cn(CC3CC3)nc2N2CCOCC2)o1`, the EC50 was < 400 nM and in the range around 600 nM. In the case of `O=C1Nc2ccccc2C(c2ccccc2)=N[C@@H]1Nc1nnc(-c2nc(C(F)(F)F)sc2NCC2COC2)o1`, the EC50 is reported as “in the range around 600 nM”. With `O=C1Nc2ccccc2C(c2ccccc2)=N[C@@H]1Nc1nnc(-c2ccsc2N2CCOCC2)o1` the EC50 was less than 400 nM. For `O=C1Nc2ccccc2C(c2ccccc2)=N[C@@H]1Nc1nnc(-c2ncc(C(F)(F)F)cc2NC2COC2)o1`, the EC50 was less than 400 nM. Compound `O=C1Nc2ccccc2C(c2ccccc2)=N[C@@H]1Nc1nnc(-c2cn(CC(F)(F)F)nc2N2CCOCC2)o1` has an EC50 greater than 800 nM. In the case of `O=C1Nc2ccccc2C(c2ccccc2)=N[C@@H]1Nc1nnc(-c2cn(-c3ccc(C(F)(F)F)nc3)nc2N2CCOCC2)o1`, the EC50 is reported as < 400 nM and in the range around 600 nM. In the case of `O=C1Nc2ccccc2C(c2ccccc2)=N[C@@H]1Nc1nnc(-c2nc(C(F)(F)F)sc2N2CCO[C@H]3C[C@H]32)o1`, the EC50 is reported as less than 400 nM. With `O=C1Nc2ccccc2C(c2ccccc2)=N[C@@H]1Nc1cc(-c2ccccc2)cnn1` the EC50 was greater than 800 nM. With `CCOC(=O)c1cnn2c1N(CCOC)CCC2` the EC50 was “in the range around 600 nM”. `O=C1Nc2ccccc2C(c2ccccc2)=N[C@@H]1Nc1nnc(-c2oc3cccc(F)c3c2N2CCOCC2)o1` gave an EC50 of less than 400 nM. `COC[C@@H]1C[C@H]1c1cc(C(F)(F)F)cnc1-c1nnc(N[C@@H]2N=C(c3ccccc3)c3ccccc3NC2=O)o1` gave an EC50 greater than 800 nM. With `COC[C@H]1CCCN1c1sc(C(F)(F)F)nc1-c1nnc(N[C@H]2N=C(c3ccccc3)c3ccccc3NC2=O)o1` the EC50 was greater than 800 nM. In the case of `CO[C@@H](C)CNc1sc(C(F)(F)F)nc1-c1nnc(N[C@H]2N=C(c3ccccc3)c3ccccc3NC2=O)o1`, the EC50 is reported as less than 400 nM. In the case of `O=C1Nc2ccccc2C(c2ccccc2)=N[C@@H]1Nc1nnc(-c2cc3ccccc3nc2N2CCOCC2)o1`, the EC50 is reported as less than 400 nM. Compound `O=C1Nc2ccccc2C(c2ccccc2)=N[C@@H]1Nc1nnc(-c2nc(C(F)(F)F)sc2N2CCO[C@@H]3C[C@@H]32)o1` has an EC50 greater than 800 nM. `CC(C)(O)c1nc(-c2nnc(N[C@H]3N=C(c4ccccc4)c4ccccc4NC3=O)o2)c(N2CCOCC2)s1` showed an EC50 of less than 400 nM. In the case of `O=C1Nc2ccccc2C(c2ccccc2)=N[C@@H]1Nc1nnc(-c2cn(C3CCC3)nc2N2CCOCC2)o1`, the EC50 is reported as less than 400 nM. `COCCNc1sc(C(F)(F)F)nc1-c1nnc(N[C@H]2N=C(c3ccccc3)c3ccccc3NC2=O)o1` showed an EC50 of less than 400 nM. For `CC1(c2nc(-c3nnc(N[C@H]4N=C(c5ccccc5)c5ccccc5NC4=O)o3)c(N3CCOCC3)s2)CCC1`, the EC50 was less than 400 nM. In the case of `COC1C2CNCC21` (stereo not drawn), the EC50 is reported as greater than 800 nM. Compound `O=C1Nc2ccccc2C(c2ccccc2)=N[C@@H]1Nc1nnc(-c2ncc(C(F)(F)F)cc2N2CCOc3ccccc32)o1` has an EC50 greater than 800 nM. For `O=C1Nc2ccccc2C(c2ccccc2)=N[C@@H]1Nc1nnc(-c2ncc(C(F)(F)F)cc2N2CCOCC2)o1` [ZELICAPAVIR], the EC50 was < 400 nM (2×) and > 800 nM.

Reference: ChEMBL document CHEMBL5729210, “Benzodiazepine derivatives as RSV inhibitors” (2022)
